# Reference: US6893858B2, “Human kcnq5 potassium channel, methods and compositions thereof” (Bristol-Myers Squibb Company, priority 2000, dated 2005)
# Target: hKCNQ5 (Homo sapiens, UniProt Q9NR82)
# Sequence (Q9NR82 36-932): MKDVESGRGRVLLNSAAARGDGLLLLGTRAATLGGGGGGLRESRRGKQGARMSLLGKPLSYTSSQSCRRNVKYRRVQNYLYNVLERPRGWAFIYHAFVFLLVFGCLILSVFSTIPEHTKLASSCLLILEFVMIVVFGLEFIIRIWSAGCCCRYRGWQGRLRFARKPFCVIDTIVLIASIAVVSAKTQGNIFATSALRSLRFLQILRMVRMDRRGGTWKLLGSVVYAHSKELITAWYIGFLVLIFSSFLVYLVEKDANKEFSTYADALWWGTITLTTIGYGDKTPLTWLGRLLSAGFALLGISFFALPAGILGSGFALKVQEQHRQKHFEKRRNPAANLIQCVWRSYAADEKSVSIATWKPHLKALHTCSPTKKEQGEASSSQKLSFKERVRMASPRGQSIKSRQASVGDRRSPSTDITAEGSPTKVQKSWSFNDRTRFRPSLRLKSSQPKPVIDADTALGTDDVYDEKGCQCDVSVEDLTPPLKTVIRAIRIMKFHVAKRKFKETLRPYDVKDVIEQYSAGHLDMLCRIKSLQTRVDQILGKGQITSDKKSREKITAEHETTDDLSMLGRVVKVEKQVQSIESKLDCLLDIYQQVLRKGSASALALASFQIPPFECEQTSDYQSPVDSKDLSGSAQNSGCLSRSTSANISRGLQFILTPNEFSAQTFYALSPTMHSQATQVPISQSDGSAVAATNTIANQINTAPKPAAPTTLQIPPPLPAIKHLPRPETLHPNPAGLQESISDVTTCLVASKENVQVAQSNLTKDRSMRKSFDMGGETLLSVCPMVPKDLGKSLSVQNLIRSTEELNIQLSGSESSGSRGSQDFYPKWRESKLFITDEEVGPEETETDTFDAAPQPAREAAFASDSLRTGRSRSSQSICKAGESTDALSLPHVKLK
# Protocol: Frog (Xenopus laevis) oocytes were prepared and injected using standard techniques; each oocyte was injected with approximately 50 nl of hKCNQ5 cRNA. Following injection, oocytes were maintained at 17° C. in ND96 medium comprising (in mM): NaCl, 90; KCl, 1.0; CaCl2, 1.0; MgCl2, 1.0; HEPES, 5.0; pH 7.5. Horse serum (5%) and penicillin/streptomycin (5%) were added to the incubation medium. Recording commenced 2-6 days following mRNA injection. Prior to the start of an experiment, oocytes were placed in a recording chamber and incubated in Modified Barth's Solution (MBS) consisting of (in mM): NaCl, 88; NaHCO3, 2.4; KCl, 1.0; HEPES, 10; MgSO4, 0.82; Ca(NO3)2, 0.33; CaCl2, 0.41; pH 7.5. Oocytes were impaled with electrodes (1-2 MΩ) and standard 2-electrode voltage clamp techniques were employed to record whole-cell membrane currents. Voltage-clamp protocols typically consisted of a series of voltage steps 1-5 second duration, in +10 mV steps from a holding potential of −90 mV to a maximal potential of +40 mV; records were digitized at 5 kHz and stored on a computer using pClamp data acquisition and analysis software (Axon Instruments).
structure (smiles),measurement,setting,value
"CC[N+](CC)(CC)CC [TEA, tetraethylammonium]",resistance of hKCNQ5 currents to the potassium channel blocker,"hKCNQ5 cRNA expressed in Xenopus oocytes, concentrations as high as 30 mM, whole-cell outward currents",largely resistant
same,blockage of hKCNQ5 outward currents (FIG. 8 legend),"hKCNQ5 expressed in Xenopus oocytes, at high concentrations",resistant to blockage
